The text below walks through data of PMC3177945 (Bioorganic & medicinal chemistry letters, 2010).

For the assay, the target named is AmpC β-lactamase (Escherichia coli, UniProt P00811). The assay is described as follows: biochemical. In kind it is biochemical.
Sequence of AmpC β-lactamase (P00811 20-377): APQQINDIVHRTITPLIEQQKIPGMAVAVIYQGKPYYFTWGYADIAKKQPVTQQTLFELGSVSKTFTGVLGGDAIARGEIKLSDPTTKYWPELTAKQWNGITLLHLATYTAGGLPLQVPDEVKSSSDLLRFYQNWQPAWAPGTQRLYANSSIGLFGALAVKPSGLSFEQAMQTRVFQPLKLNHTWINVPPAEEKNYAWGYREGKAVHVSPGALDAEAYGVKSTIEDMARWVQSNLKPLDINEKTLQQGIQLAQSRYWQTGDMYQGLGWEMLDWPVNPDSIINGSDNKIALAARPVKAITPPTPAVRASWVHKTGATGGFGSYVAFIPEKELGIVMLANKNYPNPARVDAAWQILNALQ

`Cc1noc(C)c1S(=O)(=O)Nc1cc(B(O)O)ccc1C(=O)O` [compound 12]: where the note is “4-carboxy derivative vs non-carboxylate analog (6–9, 1)”, the “increase of affinity for AmpC compared to non-carboxylate analog” value is “performed worse with respect to its analog”.
`O=C(O)c1ccc(C(=O)Nc2cccc(S(=O)(=O)Nc3cc(B(O)O)ccc3C(=O)O)c2)cc1` [compound 13] showed a Ki of 100 nM.
